According to patent US20090227456A1, “Process for Combating Water Polluted By Algae” (priority 2006, published 2009):

What was measured:
[1] = system: green algae, blue-green algae and other polluting algae; experiment: Experiments in Beijing: suppression of algal growth by keeping water pH low; format: in vivo
Text: (§1) Subsequent experiments have verified that the extermination occurred when the pH value of the water is reduced to 5.8 or less. Dead algal remains can be filtered out when acidized polluted water by the new filtering system of aquitransistor/filter, and the filtered water is suitable as source of urban water supply. […] Those discoveries and previous developments were patented to teach the use of carbon dioxide as algicide in environmental rehabilitation of polluted lakes and streams for urban water supply. The two Patent applications are:
The Dianchi water with pH values ranging up to 9 was reduced to less than 6, and the empirical rate was estimated in experiments to reduce the pH value by three units. The amount of dissolving carbon dioxide into alkaline waters to combate pollution is substantial. To suppress the algal growth in streams, ponds, swimming pools or fish tanks, the quantity of carbon dioxide required is small. The purpose is less to reduce carbon dioxide emission, but to maintain the cleanness of the water body. The growth of algae can be suppressed if the pH of water is maintained at 7, through the dissolution of carbon dioxide in water. […] Where medium or small quantifies of carbon dioxide are required, we recommend the use of carbon dioxide produced by the acidization of carbonates. […]

[2] = system: polluting algae of the Dianchi water; experiment: Experiments on the shore of polluted lake Dianchi: acidization of the water by carbon dioxide; format: in vivo
Text: as §1
The Dianchi water with pH values ranging up to 9 was reduced to less than 6, and the empirical rate was estimated in experiments to reduce the pH value by three units. The amount of dissolving carbon dioxide into alkaline waters to combate pollution is substantial. To suppress the algal growth in streams, ponds, swimming pools or fish tanks, the quantity of carbon dioxide required is small. The purpose is less to reduce carbon dioxide emission, but to maintain the cleanness of the water body. The growth of algae can be suppressed if the pH of water is maintained at 7, through the dissolution of carbon dioxide in water. The requirement is in the range of 10-100 grams carbon dioxide for one cubic-meter volume of water, depending the atmosphere-water interchange rate, and other factors. […] Since the main expenditure will be acidization, which is about 30$ per ton, the cost of maintaining algae-free swimming pool should be less than a few dollars per week. Very small metal containers for acidization of […] to produce carbon dioxide can be attached to fish tanks. The occasional bubbling of carbon dioxide to neutralize the alkalinity of water would not only be functional, but also fascinating to children owning the pet fish, and to their mother would not have to slave every month to clean up the algal pollution. Where medium or small quantifies of carbon dioxide are required, we recommend the use of carbon dioxide produced by the acidization of carbonates. The by-product CaCl2 is useful, but has little commercial value. […]

O=C=O [carbon dioxide]
pH value of water at which algal growth is suppressed ([1]; pH kept at this value or below): ≤ 7.0 pH
carbon dioxide requirement to suppress algal growth (pH maintained at 7) ([1]; streams, ponds, swimming pools or fish tanks, depends on atmosphere-water interchange rate): 10-100 grams carbon dioxide for one cubic-meter volume of water
extermination of polluting algae after acidization of the water ([2]; Dianchi lake water acidized by carbon dioxide): all be exterminated
empirical rate of CO2 to reduce the pH value by three units ([2]; Dianchi water, pH up to 9 reduced to less than 6): 2 kg CO2 per ton water
pH of Dianchi water after treatment ([2]; starting pH values ranging up to 9, 2 kg CO2 per ton water): less than 6 pH
pH value of the water at which extermination occurred ([2]; water acidized by carbon dioxide): ≤ 5.8 pH
